Measurements taken from US8354455B2, “Prodrugs containing novel bio-cleavable linkers” (Piramal Enterprises Limited and Apparao Satyam, priority 2004, dated 2013).
“Also recorded” adds a separate entry of the source. Read-outs that look alike come from different tables or passages of the source. Marks after values point to notes of the source that are not given here.

Tests used:
MES-induced seizures [1] = assay: Maximal Electroshock Test (MES), Test 1, mice i.p.; type: in vivo; details: for minimal effective dose: Mus musculus, ip; for minimal effective dose / MES 0.5 h / MES 4.0 h: symbol = dose with activity; for activity in MES model (in words): Test 1, mice i.p.; for MES, at 2 hours after dosing: 2 h (footnote h; printed in 4.0 h column)
convulsant metrazol = assay: Subcutaneous Metrazol Seizure Threshold Test (scMET), Test 1, mice i.p.; type: in vivo; details: for minimal effective dose: Mus musculus, ip; for minimal effective dose / ScMET 0.5 h / ScMET 4.0 h: symbol = dose with activity; for ScMET (number of animal protected/number of animal tested) / ScMET 0.5 h / ScMET 4.0 h: mice, i.p.; for ScMET (number of animal protected/number of animal tested): 300 mg/kg (+)
mice = details: for Rotorod Toxicity 4.0 h / Rotorod Toxicity (number of animals exhibiting toxicity/number of animals tested) / Rotorod Toxicity 0.5 h: mice, i.p.; for Rotorod Toxicity 4.0 h / Rotorod Toxicity 0.5 h: symbol = dose with toxicity; for Rotorod Toxicity (number of animals exhibiting toxicity/number of animals tested) / Rotorod Toxicity 0.5 h: 0.5 h; for toxicity (in words): Test 1, mice i.p.
rats = assay: Neurotoxicity, rats p.o. (Test 2 and Test 3); details: Test 2, rats p.o.
Text: Acute Toxicity—Minimal Motor Impairment (MMI): To assess a compound's undesirable side effects (toxicity), animals were monitored for overt signs of impaired neurological or muscular function.
Groups of at least 8 rats received various doses of the candidate compound until at least two points were established between the limits of 100 percent protection or toxicity and zero percent protection or minimal toxicity. The 95 percent confidence limits, slopes of the regression lines and standard errors of the slopes were calculated for each quantitative determination. Rats received test compounds orally.
This secondary evaluation determines the time to peak effect (TPE), neurotoxicity, median effective dose (ED50) and biological response.

MES-induced seizures [2] = assay: animal or person; type: in vivo, rats; details: Test 2, rats p.o., 150 mg/kg
[3] = 0.5 h, read-out: MES 0.5 h, mice, i.p., 0.5 h
[4] = 4 h, read-out: MES 4.0 h, mice, i.p., 4.0 h
[5] = 0.5 h, read-out: ScMET 0.5 h, mice, i.p., 0.5 h
[6] = 4 h, read-out: ScMET 4.0 h, mice, i.p., 4.0 h
[7] = mice, i.p., 0.5 h, 300 mg/kg (+)
[8] = mice, i.p., 4.0 h, 300 mg/kg (+)

Structure (SMILES) | minimal effective dose (MES-induced seizures [1]; [3]) | minimal effective dose (MES-induced seizures [1]; [4]) | minimal effective dose (convulsant metrazol; [5]) | minimal effective dose (convulsant metrazol; [6]) | Rotorod Toxicity 4.0 h (mice) | MES (number of animal protected/number of animal tested) (MES-induced seizures [1]; [7]) | ScMET (number of animal protected/number of animal tested) (convulsant metrazol; 0.5 h) | Rotorod Toxicity (number of animals exhibiting toxicity/number of animals tested) (mice; 300 mg/kg (+)) | Rotorod Toxicity 0.5 h (mice) | MES (number of animal protected/number of animal tested) (MES-induced seizures [1]; [8]) | activity in MES model (in words) (MES-induced seizures [1]) | ScMET 0.5 h (convulsant metrazol; 0.5 h) | toxicity (in words) (mice) | Toxicity (number of animals exhibiting toxicity/number of animals tested) (rats; 30 mg/kg, 1.00 h) | Toxicity (number of animals exhibiting toxicity/number of animals tested) (rats; 30 mg/kg, 2.00 h) | Toxicity (number of animals exhibiting toxicity/number of animals tested) (rats; 30 mg/kg, 4.00 h) | other results
CCOC(=O)CC1(CNC(=O)OCCSSCCO[N+](=O)[O-])CCCCC1 [I-A1-NOPD1] | < 300 mg/kg | > 300 mg/kg | > 300 mg/kg | > 300 mg/kg | — (— = no activity or no toxicity at 300 mg/kg) | – | – | – | – | – | – | – | – | – | – | – | MES, at 0.25 hours after dosing (MES-induced seizures [1]; mice, i.p., 0.25 h (footnote k; printed in 0.5 h column)): ++ (++ = activity or toxicity at 100 mg/kg)
CCOC(=O)CC1(CNC(=O)OCCSSCCOC(=O)NC(CO)C(=O)OC)CCCCC1 (stereo not shown) [I-A1-PD6] | < 300 mg/kg | > 300 mg/kg | < 300 mg/kg | > 300 mg/kg | — (— = no activity or no toxicity at 300 mg/kg) | (1/1) | (1/1) | (4/4)^i | + (+ = activity or toxicity at 300 mg/kg) | – | – | – | – | – | – | – | –
CCOC(=O)CC1(CNC(=O)OCCSSCCOC(=O)NC(CCC(=O)OC)C(=O)OC)CCCCC1 (stereo not shown) [I-A1-PD7] | < 300 mg/kg | > 300 mg/kg | < 300 mg/kg | > 300 mg/kg | — (— = no activity or no toxicity at 300 mg/kg) | (1/1) | (1/1)^e | (2/4)^d | + (+ = activity or toxicity at 300 mg/kg) | – | – | – | – | – | – | – | –
CCOC(=O)CC1(CNC(=O)OCCSSCCO)CCCCC1 [I-A1-PD8] | – | > 300 mg/kg | > 300 mg/kg | > 300 mg/kg | — (— = no activity or no toxicity at 300 mg/kg) | (1/1) | (1/1) | (4/4)^f | – | (1/1) | – | – | – | – | – | – | MES (number of animal protected/number of animal tested) (MES-induced seizures [1]; mice, i.p., 0.5 h, 100 mg/kg (++)): (2/3)
CCOC(=O)CC1(CNC(=O)OCCSSCCOC(=O)NCCN(C)C)CCCCC1 [I-A1-PD10] | > 300 mg/kg | > 300 mg/kg | > 300 mg/kg | > 300 mg/kg | – | – | – | – | ++ (++ = activity or toxicity at 100 mg/kg) | – | – | – | – | – | – | – | Rotorod Toxicity (number of animals exhibiting toxicity/number of animals tested) (mice; 100 mg/kg (++)): (8/8)^j
CCOC(=O)CC1(CNC(=O)OCCSSCCOC(C)=O)CCCCC1 [I-A1-PD13] | < 300 mg/kg | > 300 mg/kg | < 300 mg/kg | > 300 mg/kg | — (— = no activity or no toxicity at 300 mg/kg) | (1/1) | (1/1) | (1/4) | + (+ = activity or toxicity at 300 mg/kg) | – | – | – | – | – | – | – | –
CS(=O)(=O)NC(=O)OCCSSCCOC(=O)Nc1nnc(-c2cccc(Cl)c2Cl)c(N)n1 [I-A1-PD15] | – | – | – | – | – | – | – | – | – | (1/1) | active in MES | — (— = no activity or no toxicity at 300 mg/kg) | no or mild toxicity | 0/4 | 0/4 | 0/4 | ScMET 4.0 h (convulsant metrazol): — (— = no activity or no toxicity at 300 mg/kg); Toxicity (number of animals exhibiting toxicity/number of animals tested) (rats; 30 mg/kg, 0.50 h): 0/4
Nc1nc(NC(=O)OCCSSCCOC(=O)NCC2(CC(=O)O)CCCCC2)nnc1-c1cccc(Cl)c1Cl [I-AA-MPD11] | > 300 mg/kg | – | > 300 mg/kg | > 300 mg/kg | — (— = no activity or no toxicity at 300 mg/kg) | – | – | – | – | (1/1) | active in MES | – | no or mild toxicity | 0/4 | 0/4 | 0/4 | –
CCOC(=O)CC1(CNC(=O)OCCSSCCOC(=O)NC(=O)[C@H](CC)N2CCCC2=O)CCCCC1 [I-AA-MPD13] | > 300 mg/kg | > 300 mg/kg | < 300 mg/kg | > 300 mg/kg | — (— = no activity or no toxicity at 300 mg/kg) | – | – | – | + (+ = activity or toxicity at 300 mg/kg) | – | – | – | – | – | – | – | –
CCCC(CCC)C(=O)OCCSSCCOC(=O)Nc1nnc(-c2cccc(Cl)c2Cl)c(N)n1 [I-CA-MPD23] | – | – | – | – | – | – | – | – | – | (1/3) | active in MES | — (— = no activity or no toxicity at 300 mg/kg) | no or mild toxicity | – | – | – | MES 0.5 h (MES-induced seizures [1]; mice, i.p., 0.5 h): — (— = no activity or no toxicity at 300 mg/kg); MES, at 2 hours after dosing (MES-induced seizures [1]; mice, i.p.): ++ (++ = activity or toxicity at 100 mg/kg); MES 4.0 h (MES-induced seizures [1]; mice, i.p., 4.0 h): + (+ = activity or toxicity at 300 mg/kg); ScMET 4.0 h (convulsant metrazol): — (— = no activity or no toxicity at 300 mg/kg); MES (number of animal protected/number of animal tested) (MES-induced seizures [2]; 4.00 h): 4/4; MES (number of animal protected/number of animal tested) (MES-induced seizures [2]; 6.00 h): 4/4; MES (number of animal protected/number of animal tested) (MES-induced seizures [2]; 8.00 h): 4/4; Toxicity (number of animals exhibiting toxicity/number of animals tested) (rats; 150 mg/kg, 2.00 h): 0/4; Toxicity (number of animals exhibiting toxicity/number of animals tested) (rats; 150 mg/kg, 4.00 h): 0/4; Toxicity (number of animals exhibiting toxicity/number of animals tested) (rats; 150 mg/kg, 6.00 h): 0/4; Toxicity (number of animals exhibiting toxicity/number of animals tested) (rats; 150 mg/kg, 8.00 h): 0/4
Nc1nc(NC(=O)OCCSSCCOC(=O)c2cccnc2)nnc1-c1cccc(Cl)c1Cl [I-CA-MPD24] | – | – | – | – | — (— = no activity or no toxicity at 300 mg/kg) | – | – | – | — (— = no activity or no toxicity at 300 mg/kg) | – | active in MES | — (— = no activity or no toxicity at 300 mg/kg) | non-toxic; also recorded: no or mild toxicity | 0/4 | 0/4 | 0/4 | MES 0.5 h (MES-induced seizures [1]; mice, i.p., 0.5 h): — (— = no activity or no toxicity at 300 mg/kg); MES, at 2 hours after dosing (MES-induced seizures [1]; mice, i.p.): ++ (++ = activity or toxicity at 100 mg/kg); MES (number of animal protected/number of animal tested) (MES-induced seizures [1]; mice, i.p., 2 h after dosing, 100 mg/kg (++)): (3/3)^h; MES 4.0 h (MES-induced seizures [1]; mice, i.p., 4.0 h): ++ (++ = activity or toxicity at 100 mg/kg); MES, at 6 hours after dosing (MES-induced seizures [1]; mice, i.p., 6 h (footnotes g, m; printed in 4.0 h column)): ++ (++ = activity or toxicity at 100 mg/kg); MES (number of animal protected/number of animal tested) (MES-induced seizures [1]; mice, i.p., 6 h after dosing, 100 mg/kg (++)): (3/3)^m; activity in scMET model (in words) (convulsant metrazol; Test 1, mice i.p.): active; Toxicity (number of animals exhibiting toxicity/number of animals tested) (rats; 30 mg/kg, 0.50 h): 0/4
Cl.Nc1nc(NC(=O)OCCSSCCNC(=O)c2cccnc2)nnc1-c1cccc(Cl)c1Cl [I-CA-MPD25] | – | – | – | – | — (— = no activity or no toxicity at 300 mg/kg) | – | – | – | — (— = no activity or no toxicity at 300 mg/kg) | (1/1) | active in MES | — (— = no activity or no toxicity at 300 mg/kg) | no or mild toxicity | 0/4 | 0/4 | 0/4 | ScMET 4.0 h (convulsant metrazol): — (— = no activity or no toxicity at 300 mg/kg); Toxicity (number of animals exhibiting toxicity/number of animals tested) (rats; 30 mg/kg, 0.50 h): 0/4
